Source: ChEMBL document CHEMBL1126538, “A novel class of 1,3-oxathiolane nucleoside analogues having potent anti-HIV activity” (1993)
Converted amounts (≈) assume the structure as drawn.

How the values were obtained:
Format in all cases: functional
[1] = system: MT4; test: Inhibitory concentration against HIV-1 in MT-4 cell line.; conditions: Homo sapiens, read-out: ID50 (the source's name)
[2] = system: MT4; test: Cytotoxic activity against MT-4 cell line; conditions: Homo sapiens, read-out: CD50 (the source's name)
[3] = system: MT4; test: Compound was tested for its inhibitory concentration against HIV-1 in MT-4 cell line; conditions: Homo sapiens, read-out: ID50 (the source's name)

Compound: O=c1ccn([C@@H]2COC(CO)S2)c(=O)[nH]1 (some centres not stated)
- IC50 [1]: > 100 µg/mL
- CC50 [2]: > 100 µg/mL

Compound: Nc1ncnc2c1ncn2[C@@H]1COC(CO)S1 (some centres not stated)
- IC50 [1]: > 100 µg/mL
- CC50 [2]: > 100 µg/mL

Compound: Nc1nc(O)c2ncn(C3COC(CO)S3)c2n1 (configuration not stated)
- IC50 [1]: > 100 µg/mL
- CC50 [2]: > 100 µg/mL

Compound: Cc1cn(C2COC(CO)S2)c(=O)[nH]c1=O (configuration not stated)
- IC50 [1]: > 100 µg/mL
- CC50 [2]: > 100 µg/mL

Compound: Nc1nc(=O)n(C2COC(CO)S2)cc1F (configuration not stated)
- IC50 [1]: 2.5 µg/mL (≈ 10.1 µM)
- CC50 [2]: > 100 µg/mL

Compound: Cc1cn([C@@H]2COC(CO)S2)c(=O)[nH]c1=O (some centres not stated)
- IC50 [1]: > 100 µg/mL
- CC50 [2]: > 100 µg/mL

Compound: Nc1ccn([C@@H]2COC(CO)S2)c(=O)n1 (some centres not stated)
- IC50 [1]: > 100 µg/mL
- CC50 [2]: > 100 µg/mL

Compound: Nc1nc(=O)n([C@@H]2COC(CO)S2)cc1F (some centres not stated)
- IC50 [1]: > 100 µg/mL
- CC50 [2]: > 100 µg/mL

Compound: Nc1ncnc2c1ncn2C1COC(CO)S1 (configuration not stated)
- IC50 [1]: 2.1 µg/mL (≈ 8.29 µM)
- CC50 [2]: 100 µg/mL (≈ 395 µM)

Compound: O=c1[nH]cnc2c1ncn2[C@H]1CC[C@@H](CO)O1 [DIDANOSINE]
- IC50 [1]: 2.3 µg/mL (≈ 9.74 µM)
- CC50 [2]: 100 µg/mL (≈ 423 µM)

Compound: Nc1ncnc2c1ncn2[C@H]1CO[C@@H](CO)S1
- IC50 [1]: 1.1 µg/mL (≈ 4.34 µM)
- CC50 [2]: 100 µg/mL (≈ 395 µM)

Compound: Nc1ccn([C@@H]2CS[C@H](CO)O2)c(=O)n1 [LAMIVUDINE]
- IC50 [1]: 0.13 µg/mL (≈ 0.567 µM)
- CC50 [2]: > 100 µg/mL

Compound: Nc1ccn(C2COC(CO)S2)c(=O)n1 (configuration not stated)
- IC50 [3]: > 10 µg/mL
- CC50 [2]: 10 µg/mL (≈ 43.6 µM)

Compound: Cc1cn([C@H]2C[C@H](N=[N+]=[N-])[C@@H](CO)O2)c(=O)[nH]c1=O [ZIDOVUDINE]
- IC50 [1]: 0.06 µg/mL (≈ 0.225 µM)
- CC50 [2]: > 1 µg/mL

Compound: Nc1ncnc2c1ncn2[C@@H]1CO[C@H](CO)S1
- IC50 [1]: 50 µg/mL (≈ 197 µM)
- CC50 [2]: 100 µg/mL (≈ 395 µM)

Compound: O=c1ccn(C2COC(CO)S2)c(=O)[nH]1 (configuration not stated)
- IC50 [1]: > 100 µg/mL
- CC50 [2]: > 100 µg/mL
